Source: patent publication US11178873B2, “Cyclic N-carboxamide compounds useful as herbicides” (FMC CORPORATION, priority 2015, dated 2021)

Columns and labels:
Format in all cases: in vivo
[1] = tested on: ragweed (common ragweed, Ambrosia elatior); assay: Test A postemergence, ragweed; conditions: 0 to 100 scale, 0 no effect, 100 complete control
From the text: (§1) Seeds of plant species selected from barnyardgrass (Echinochloa crus-galli), crabgrass, large (large crabgrass, Digitaria sanguinalis), kochia (Kochia scoparia), ragweed (common ragweed, Ambrosia elatior), morningglory (Ipomoea spp.), velvetleaf (Abutilon theophrasti), ryegrass, Italian (Italian ryegrass, Lolium multiflorum), foxtail, giant (giant foxtail, Setaria faberii), wheat (Triticum aestivum), corn (Zea mays), and pigweed (Amaranthus retroflexus), were planted into a blend of loam soil and sand and treated preemergence with a directed soil spray using test chemicals formulated in a non-phytotoxic solvent mixture which included a surfactant. At the same time, plants selected from these crop and weed species and also blackgrass (Alopecurus myosuroides), and galium (catchweed bedstraw, Galium aparine), were planted in pots containing the same blend of loam soil and sand and treated with postemergence applications of test chemicals formulated in the same manner. Plants ranged in height from 2 to 10 cm and were in the one- to two-leaf stage for the postemergence treatment. Treated plants and untreated controls were maintained in a greenhouse for approximately 10 d, after which time all treated plants were compared to untreated controls and visually evaluated for injury. Plant response ratings, summarized in Table A, are based on a 0 to 100 scale where 0 is no effect and 100 is complete control. A dash (-) response means no test result.

kochia (Kochia scoparia) [2] = assay: Test A preemergence, kochia; conditions: 0 to 100 scale, 0 no effect, 100 complete control
From the text: as §1

[3] = tested on: barnyardgrass (Echinochloa crus-galli); assay: Test A preemergence, barnyardgrass; conditions: 0 to 100 scale, 0 no effect, 100 complete control
From the text: as §1

[4] = tested on: ryegrass, Italian (Italian ryegrass, Lolium multiflorum); assay: Test A postemergence, ryegrass, Italian; conditions: 0 to 100 scale, 0 no effect, 100 complete control
From the text: as §1

[5] = tested on: blackgrass (Alopecurus myosuroides); assay: Test A postemergence, blackgrass; conditions: 0 to 100 scale, 0 no effect, 100 complete control
From the text: as §1

[6] = tested on: ryegrass, Italian (Italian ryegrass, Lolium multiflorum); assay: Test A preemergence, ryegrass, Italian; conditions: 0 to 100 scale, 0 no effect, 100 complete control
From the text: as §1

corn (Zea mays) = assay: Test A postemergence, corn; conditions: 0 to 100 scale, 0 no effect, 100 complete control
From the text: as §1

[7] = tested on: barnyardgrass (Echinochloa crus-galli); assay: Test B flooded paddy test, barnyardgrass; conditions: Flood, scale 0 to 100 (0 no effect, 100 complete control), 13 to 15 d
Method: (§2) Plant species in the flooded paddy test selected from rice (Oryza sativa), sedge, umbrella (small-flower umbrella sedge, Cyperus difformis), ducksalad (Heteranthera limosa), and barnyardgrass (Echinochloa crus-galli) were grown to the 2-leaf stage for testing. At time of treatment, test pots were flooded to 3 cm above the soil surface, treated by application of test compounds directly to the paddy water, and then maintained at that water depth for the duration of the test. Treated plants and controls were maintained in a greenhouse for 13 to 15 d, after which time all species were compared to controls and visually evaluated. Plant response ratings, summarized in Table B, are based on a scale of 0 to 100 where 0 is no effect and 100 is complete control. A dash (-) response means no test result.

rice (Oryza sativa) = assay: Test B flooded paddy test, rice; conditions: Flood, scale 0 to 100 (0 no effect, 100 complete control), 13 to 15 d
Method: as §2

[8] = tested on: barnyardgrass (Echinochloa crus-galli); assay: Test A postemergence, barnyardgrass; conditions: 0 to 100 scale, 0 no effect, 100 complete control
From the text: as §1

[9] = tested on: pigweed (Amaranthus retroflexus); assay: Test A postemergence, pigweed; conditions: 0 to 100 scale, 0 no effect, 100 complete control
From the text: as §1

[10] = tested on: ducksalad (Heteranthera limosa); assay: Test B flooded paddy test, ducksalad; conditions: Flood, scale 0 to 100 (0 no effect, 100 complete control), 13 to 15 d
Method: as §2

kochia (Kochia scoparia) [11] = assay: Test A postemergence, kochia; conditions: 0 to 100 scale, 0 no effect, 100 complete control
From the text: as §1

[12] = tested on: ragweed (common ragweed, Ambrosia elatior); assay: Test A preemergence, ragweed; conditions: 0 to 100 scale, 0 no effect, 100 complete control
From the text: as §1

[13] = tested on: sedge, umbrella (small-flower umbrella sedge, Cyperus difformis); assay: Test B flooded paddy test, sedge, umbrella; conditions: Flood, scale 0 to 100 (0 no effect, 100 complete control), 13 to 15 d
Method: as §2

[14] = tested on: pigweed (Amaranthus retroflexus); assay: Test A preemergence, pigweed; conditions: 0 to 100 scale, 0 no effect, 100 complete control
From the text: as §1

[15] = tested on: foxtail, giant (giant foxtail, Setaria faberii); assay: Test A preemergence, foxtail, giant; conditions: 0 to 100 scale, 0 no effect, 100 complete control
From the text: as §1

[16] = tested on: foxtail, giant (giant foxtail, Setaria faberii); assay: Test A postemergence, foxtail, giant; conditions: 0 to 100 scale, 0 no effect, 100 complete control
From the text: as §1

[17] = tested on: wheat (Triticum aestivum); assay: Test A postemergence, wheat; conditions: 0 to 100 scale, 0 no effect, 100 complete control
From the text: as §1

[18] = tested on: galium (catchweed bedstraw, Galium aparine); assay: Test A postemergence, galium; conditions: 0 to 100 scale, 0 no effect, 100 complete control
From the text: as §1

O=C1NCC(c2ccc(F)c(F)c2)N1C(=O)Nc1cccc(F)c1F (stereo not drawn) [Compound 11, N-(2,3-difluorophenyl)-5-(3,4-difluorophenyl)-2-oxo-1-imidazolidinecarboxamide]
Plant response rating, Ragweed ([1]; 125 g ai/ha): 0 | Plant response rating, Ragweed ([1]; 500 g ai/ha): 0 | Plant response rating, Kochia (kochia (Kochia scoparia) [2]; 125 g ai/ha): 0 | Plant response rating, Kochia (kochia (Kochia scoparia) [2]; 500 g ai/ha): 30 | Plant response rating, Barnyardgrass ([3]; 125 g ai/ha): 0 | Plant response rating, Barnyardgrass ([3]; 500 g ai/ha): 40 | Plant response rating, Ryegrass, Italian ([4]; 125 g ai/ha): 0 | Plant response rating, Ryegrass, Italian ([4]; 500 g ai/ha): 0 | Plant response rating, Blackgrass ([5]; 125 g ai/ha): 0 | Plant response rating, Blackgrass ([5]; 500 g ai/ha): 0 | Plant response rating, Ryegrass, Italian ([6]; 125 g ai/ha): 0 | Plant response rating, Ryegrass, Italian ([6]; 500 g ai/ha): 30 | Plant response rating, Corn (corn (Zea mays); 125 g ai/ha): 0 | Plant response rating, Corn (corn (Zea mays); 500 g ai/ha): 0 | Plant response rating, Barnyardgrass ([7]; 500 g ai/ha): 0 | Plant response rating, Rice (rice (Oryza sativa); 500 g ai/ha): 0 | Plant response rating, Barnyardgrass ([8]; 125 g ai/ha): 0 | Plant response rating, Barnyardgrass ([8]; 500 g ai/ha): 20 | Plant response rating, Pigweed ([9]; 125 g ai/ha): 0 | Plant response rating, Pigweed ([9]; 500 g ai/ha): 0 | Plant response rating, Ducksalad ([10]; 500 g ai/ha): 60 | Plant response rating, Kochia (kochia (Kochia scoparia) [11]; 125 g ai/ha): 0 | Plant response rating, Kochia (kochia (Kochia scoparia) [11]; 500 g ai/ha): 0 | Plant response rating, Ragweed ([12]; 125 g ai/ha): 0 | Plant response rating, Ragweed ([12]; 500 g ai/ha): 0 | Plant response rating, Sedge, Umbrella ([13]; 500 g ai/ha): 0 | Plant response rating, Pigweed ([14]; 125 g ai/ha): 0 | Plant response rating, Pigweed ([14]; 500 g ai/ha): 0 | Plant response rating, Foxtail, Giant ([15]; 125 g ai/ha): 0 | Plant response rating, Foxtail, Giant ([15]; 500 g ai/ha): 80 | Plant response rating, Foxtail, Giant ([16]; 125 g ai/ha): 0 | Plant response rating, Foxtail, Giant ([16]; 500 g ai/ha): 30 | Plant response rating, Wheat ([17]; 125 g ai/ha): 0 | Plant response rating, Wheat ([17]; 500 g ai/ha): 0 | Plant response rating, Galium ([18]; 125 g ai/ha): 0 | Plant response rating, Galium ([18]; 500 g ai/ha): 0

O=C1NCC(c2ccccc2)N1C(=O)Nc1cccc(F)c1F (stereo not drawn) [Compound 12, N-(2,3-difluorophenyl)-2-oxo-5-phenyl-1-imidazolidinecarboxamide]
Plant response rating, Ragweed ([1]; 125 g ai/ha): 0 | Plant response rating, Ragweed ([1]; 500 g ai/ha): 0 | Plant response rating, Kochia (kochia (Kochia scoparia) [2]; 125 g ai/ha): 0 | Plant response rating, Kochia (kochia (Kochia scoparia) [2]; 500 g ai/ha): 20 | Plant response rating, Barnyardgrass ([3]; 125 g ai/ha): 20 | Plant response rating, Barnyardgrass ([3]; 500 g ai/ha): 50 | Plant response rating, Ryegrass, Italian ([4]; 125 g ai/ha): 0 | Plant response rating, Ryegrass, Italian ([4]; 500 g ai/ha): 0 | Plant response rating, Blackgrass ([5]; 125 g ai/ha): 0 | Plant response rating, Blackgrass ([5]; 500 g ai/ha): 0 | Plant response rating, Ryegrass, Italian ([6]; 125 g ai/ha): 0 | Plant response rating, Ryegrass, Italian ([6]; 500 g ai/ha): 0 | Plant response rating, Corn (corn (Zea mays); 125 g ai/ha): 0 | Plant response rating, Corn (corn (Zea mays); 500 g ai/ha): 0 | Plant response rating, Barnyardgrass ([7]; 1000 g ai/ha): 0 | Plant response rating, Rice (rice (Oryza sativa); 1000 g ai/ha): 0 | Plant response rating, Barnyardgrass ([8]; 125 g ai/ha): 60 | Plant response rating, Barnyardgrass ([8]; 500 g ai/ha): 90 | Plant response rating, Pigweed ([9]; 125 g ai/ha): 0 | Plant response rating, Pigweed ([9]; 500 g ai/ha): 0 | Plant response rating, Ducksalad ([10]; 1000 g ai/ha): 90 | Plant response rating, Kochia (kochia (Kochia scoparia) [11]; 125 g ai/ha): 0 | Plant response rating, Kochia (kochia (Kochia scoparia) [11]; 500 g ai/ha): 0 | Plant response rating, Ragweed ([12]; 125 g ai/ha): 0 | Plant response rating, Ragweed ([12]; 500 g ai/ha): 0 | Plant response rating, Sedge, Umbrella ([13]; 1000 g ai/ha): 0 | Plant response rating, Pigweed ([14]; 125 g ai/ha): 0 | Plant response rating, Pigweed ([14]; 500 g ai/ha): 0 | Plant response rating, Foxtail, Giant ([15]; 125 g ai/ha): 60 | Plant response rating, Foxtail, Giant ([15]; 500 g ai/ha): 90 | Plant response rating, Foxtail, Giant ([16]; 125 g ai/ha): 80 | Plant response rating, Foxtail, Giant ([16]; 500 g ai/ha): 80 | Plant response rating, Wheat ([17]; 125 g ai/ha): 0 | Plant response rating, Wheat ([17]; 500 g ai/ha): 0 | Plant response rating, Galium ([18]; 125 g ai/ha): 0 | Plant response rating, Galium ([18]; 500 g ai/ha): 0

CN1CC(c2ccc(C(F)(F)F)cc2)N(C(=O)Nc2ccccc2F)C1=O (stereo not drawn) [Compound 13]
Plant response rating, Ragweed ([1]; 31 g ai/ha): 0 | Plant response rating, Ragweed ([1]; 125 g ai/ha): 0 | Plant response rating, Kochia (kochia (Kochia scoparia) [2]; 31 g ai/ha): 0 | Plant response rating, Kochia (kochia (Kochia scoparia) [2]; 125 g ai/ha): 0 | Plant response rating, Barnyardgrass ([3]; 31 g ai/ha): 0 | Plant response rating, Barnyardgrass ([3]; 125 g ai/ha): 0 | Plant response rating, Ryegrass, Italian ([4]; 31 g ai/ha): 0 | Plant response rating, Ryegrass, Italian ([4]; 125 g ai/ha): 0 | Plant response rating, Blackgrass ([5]; 31 g ai/ha): 0 | Plant response rating, Blackgrass ([5]; 125 g ai/ha): 0 | Plant response rating, Ryegrass, Italian ([6]; 31 g ai/ha): 0 | Plant response rating, Ryegrass, Italian ([6]; 125 g ai/ha): 0 | Plant response rating, Corn (corn (Zea mays); 31 g ai/ha): 0 | Plant response rating, Corn (corn (Zea mays); 125 g ai/ha): 0 | Plant response rating, Barnyardgrass ([7]; 250 g ai/ha): 10 | Plant response rating, Rice (rice (Oryza sativa); 250 g ai/ha): 0 | Plant response rating, Barnyardgrass ([8]; 31 g ai/ha): 0 | Plant response rating, Barnyardgrass ([8]; 125 g ai/ha): 0 | Plant response rating, Pigweed ([9]; 31 g ai/ha): 0 | Plant response rating, Pigweed ([9]; 125 g ai/ha): 0 | Plant response rating, Ducksalad ([10]; 250 g ai/ha): 70 | Plant response rating, Kochia (kochia (Kochia scoparia) [11]; 31 g ai/ha): 0 | Plant response rating, Kochia (kochia (Kochia scoparia) [11]; 125 g ai/ha): 0 | Plant response rating, Ragweed ([12]; 31 g ai/ha): 0 | Plant response rating, Ragweed ([12]; 125 g ai/ha): 0 | Plant response rating, Sedge, Umbrella ([13]; 250 g ai/ha): 0 | Plant response rating, Pigweed ([14]; 31 g ai/ha): 0 | Plant response rating, Pigweed ([14]; 125 g ai/ha): 0 | Plant response rating, Foxtail, Giant ([15]; 31 g ai/ha): 0 | Plant response rating, Foxtail, Giant ([15]; 125 g ai/ha): 0 | Plant response rating, Foxtail, Giant ([16]; 31 g ai/ha): 0 | Plant response rating, Foxtail, Giant ([16]; 125 g ai/ha): 0 | Plant response rating, Wheat ([17]; 31 g ai/ha): 0 | Plant response rating, Wheat ([17]; 125 g ai/ha): 0 | Plant response rating, Galium ([18]; 31 g ai/ha): 0 | Plant response rating, Galium ([18]; 125 g ai/ha): 0
